Where no end group is shown, it is not given here.

Assay type in all cases: cell-based
One series deals with LNCaP cells. Kind of series: Proliferation of LNCaP cells without or with R1881 (MTT). The settings on record: 2% serum without or with 1 nM R1881; 50 µM peptide; day 6; Fig. 3A; averages of three independent experiments; P<0.03 vs Vehicle. How it is done: (§1) For proliferation, cells were grown in medium containing 2% FBS extracted with dextran-coated charcoal (DCC). 48 hours later, ethanol or 1 nM R1881 was added to the cells followed by peptide treatment. The MTT assay (Sigma) was used as before to determine cell number. For apoptosis, 5000 cells were seeded in 96-well plates and treated with Vehicle (DMSO), Peptide A-8R (25 µM), Etoposide (50 µM) (Sigma) at different time points. The Caspase (3/7) activity was measured using Apo-ONE Homogeneous Caspase-3/7 assay kit (Promega). PARP cleavage was also used to measure apoptosis, and is described below.
Vehicle or different concentrations of Peptide A-8R or C-8R, as shown, was added to (A) hormone-dependent LNCaP cells grown in 2% serum without or with 1 nM R1881, (C) castration-resistant C81 or CWR-22Rv1 cells, or (E) sGCα1-deficient PC-3 or Cos cells. Cell number was measured after various days of incubation. Data points represent averages of three independent experiments plus standard deviations. Asterisks indicate statistical significance (P<0.03) of Peptide A activity, relative to Vehicle. Western blotting was used to monitor expression of endogenous sGCα1 in (B) C81 and CWR-22Rv1 cells, treated without or with 1 nM R1881, or (E) PC-3 and Cos cells, as compared to LNCaP cells. Note that β-actin was used to control for protein loading.

For series [1], the system named is Caspase 3/7 activity in LNCaP cells. Description: Caspase 3/7 assay, LNCaP cells. The settings on record: Fig. 5A; for increase in Caspase 3/7 activity: 10 µM, averages of three independent experiments, relative to first condition. Here is the method: as §1
Figure 5 Peptide A-8R induces apoptosis of prostate cancer cells. (A) LNCaP, (B) PC-3, or (C) Cos cells were treated with Vehicle, Peptide A-8R (10 µM), or Etoposide (20 µM) for 0–24 hrs and subjected to a Caspase assay to measure apoptosis. Bar graphs represent averages of three independent experiments plus standard deviations. All activities are relative to the first condition, and this activity was set to 1. Asterisks indicate statistical significance (P<0.005). (D) LNCaP cells were treated with Vehicle, Peptide C-8R, Peptide A-8R, or Etoposide (each drug at 50 µM) for 8 hrs and monitored for apoptosis by measuring PARP cleavage using Western blotting. Note that β-actin was used to control for protein loading.
Supplementary file pone.0064189.s005.tif: Figure S5 ROS generation is not induced by Peptide A-8R in PC-3 cells and Peptide C-8R in LNCaP cells. (A) PC-3 cells were treated with Vehicle or different concentrations of Peptide A-8R or Peptide C-8R, as shown, or (B) LNCaP cells were treated with Vehicle or different concentrations of Peptide A-8R or Peptide C-8R, or H2O2 and monitored for ROS generation after 0–30 (A) or 30 (B) min. (C) LNCaP cells were treated with Vehicle, Peptide C-8R (10 µM), Peptide A-8R (10 µM), or Etoposide (100 µM) for 0–8 hrs and subjected to a Caspase assay to measure apoptosis. Bar graphs represent averages of three independent experiments plus standard deviations. (C) All activities are relative to the first condition, and this activity was set to either 1. Asterisks indicate statistical significance (P<0.006) of all values compared to Vehicle (B) or to 0 hour (C). (TIF) Click here for additional data file.

For a further series, the system named is p15, p21, CDK6. Kind of series: Expression of cell-cycle regulatory proteins (Western blot), C81 cells. The settings on record: 25 µM, Fig. S7. Here is the method:
Western blotting was performed as described using primary antibodies against sGCα1 (Cayman Chemical), pan-Akt (Cell Signaling Technology), phospho-AKT (S473, T308) (Cell Signaling Technology), phospho-PDK1 (Cell Signaling Technology), phospho-GSK-3β (Cell Signaling Technology), PARP (Cell Signaling Technology), and β-Actin (Abcam).
Supplementary file pone.0064189.s007.tif: Figure S7 Peptide A-8R induces expression of p15 and p21 in prostate cancer cells. C81 cells treated with 25 µM Peptide A-8R or Peptide C-8R for different times, as shown, monitored for expression of p15, p21, and CDK6 by Western blotting (antibodies from Cell Signaling Technology). Note that β-actin was used to control for protein loading. (TIF) Click here for additional data file.

Turning to Ac-TFCKAFPFHIIRRRRRRRR [Peptide A-8R], in the series on LNCaP cells, the “cytotoxic activity with or without androgen, LNCaP” value was “same potent cytotoxic activity with or without androgen, causing all cells to perish by day 6 when treated with 50 µM peptide”. The “increase in Caspase 3/7 activity” value in series [1] (1 hour) was 2 fold. Also, the “increase in Caspase 3/7 activity” value in series [1] (8 hrs) is on record as around 4 fold. In addition, the “speed of Caspase 3/7 induction relative to Etoposide” value in series [1] is “much faster than the well-studied apoptosis-inducing drug Etoposide”. Besides, in series [1] (Peptide 10 µM, Etoposide 20 µM, 24 hrs), the “Caspase 3/7 activity” value is listed as “diminished to Vehicle levels”. Further, in the series on p15, p21, CDK6, the “expression of CDK6” value is “unchanged”; the “expression of p15 and p21” value is listed as “expression increased”.

The record behind these values is PMC3664642, “A Peptide against Soluble Guanylyl Cyclase α1: A New Approach to Treating Prostate Cancer” (PLoS ONE, 2013).
